This note sets out measurements from patent publication US12653865B2, “Dual-agonist compound for both GLP-1 and GIP receptors and application thereof” (Jiangsu Hengrui Pharmaceuticals Co., Ltd., priority 2020, dated 2026).

For one data set, the system named is diet-induced obese mice. As to the kind of experiment: Body weight and fat mass in diet-induced obese mice. It counts as in vivo, C57BL/6 mice. The settings on record: induced obese mice, 10 nmol/kg sc. As to the method: High-fat food-induced obese male C57BL/6 mice (weighing 35-55 g, aged 10-12 weeks, purchased from Shanghai Jiesijie Laboratory Animal Co., Ltd.) were tested. […] According to the experimental design, the body weight of each mouse was measured and recorded on day 0, day 3, day 6 and so on to day 27, the average body weight of each group of mice was calculated, and weight change curves were plotted by taking the body weight on the first day as the standard. At the end, the fat and other visceral organs of each part of the mice were taken out and weighed, and the viscera/brain ratio for fat in each part of each mouse was calculated. The effect of the drug on the fat was determined by comparing the change in the organ/brain ratio for fat of different parts of each group of mice.

The nature of data set [1]: Stability in human plasma (LC-MS). It is filed as in vitro ADME. The settings on record: 0 min (standard 100%).
Procedure: 5 μL of each of samples at concentrations of 20 ng/mL, 50 ng/mL, 100 ng/mL, 200 ng/mL, 500 ng/mL, 1000 ng/mL, 2000 ng/mL, 5000 ng/mL and 10000 ng/mL was added to 45 μL of human plasma. The content of the compounds in the samples was determined by the LC-MS method and a standard curve was formed. 5 μL of a 1 mg/mL polypeptide solution was added to 45 μL of human plasma. […] With the content at 0 min as the standard (100%), the relative content of the retained compounds in the samples at other time points was calculated.
The subject of a further data set is normal mice. As to the kind of experiment: Blood glucose in normal mice after single subcutaneous injection and intraperitoneal glucose. The note with it: 10 nmol/kg sc; for Blood glucose: glucose ip 18 h later. It is filed as in vivo, C57BL/6 mice. As for the experimental part: 18 h later, a glucose solution at a concentration of 0.2 g/mL was intraperitoneally injected. Blood glucose values were measured by collecting blood from the tail of mice at time points of 0 min, 15 min, 30 min, 60 min, and 120 min according to the experimental design. The specific procedures were as follows: the mouse was physically immobilized with the tail exposed, and a little was cut off the tail, then the tail was squeezed to bleed, and blood glucose was determined using a Roche active glucometer after the 1 st drop of blood was discarded. The area under the blood glucose curve (AUC) was calculated from the results of all points.

The structures appear in SMILES notation. *1 amine or outer side, *2 acyl side, *3 side chain or, on linkers, in order; H or OH if unused. Where a SMILES comes first, the peptide text is derived from it. Side-chain parts run from the residue outwards. [ ]: non-standard residue; d: D form. The star is where a group is joined. C20 diacid = O=C(O)CCCCCCCCCCCCCCCCCCC(=O)*; γGlu = O=C(O)[C@H](CCC(=O)[*:2])N[*:1]; AEEA = NCCOCCOCC(=O)O; Aib = CC(C)(N)C(=O)O

In the case of `CC[C@H](C)[C@H](NC(=O)[C@H](CCCCN)NC(=O)[C@H](CC(=O)O)NC(=O)[C@H](CCCCNC(=O)COCCOCCNC(=O)COCCOCCNC(=O)CC[C@H](NC(=O)CCCCCCCCCCCCCCCCCCC(=O)O)C(=O)O)NC(=O)[C@H](Cc1ccc(O)cc1)NC(=O)[C@@H](NC(=O)[C@H](CO)NC(=O)[C@H](Cc1ccc(O)cc1)NC(=O)[C@H](CC(=O)O)NC(=O)[C@H](CO)NC(=O)[C@@H](NC(=O)[C@H](Cc1ccccc1)NC(=O)[C@@H](NC(=O)CNC(=O)[C@H](CCC(=O)O)NC(=O)C(C)(C)NC(=O)[C@@H](N)Cc1ccc(O)cc1)[C@@H](C)O)[C@@H](C)O)[C@@H](C)CC)C(=O)N[C@@H](C)C(=O)N[C@@H](C)C(=O)N[C@@H](CCC(N)=O)C(=O)N[C@@H](CCC(=O)O)C(=O)N[C@@H](Cc1ccccc1)C(=O)N[C@H](C(=O)N[C@@H](CC(N)=O)C(=O)N[C@@H](Cc1c[nH]c2ccccc12)C(=O)N[C@@H](CC(C)C)C(=O)N[C@@H](CC(C)C)C(=O)N[C@@H](C)C(=O)NCC(=O)NCC(=O)N1CCC[C@H]1C(=O)N[C@@H](CO)C(=O)N[C@@H](CO)C(=O)NCC(=O)N[C@@H](C)C(=O)N1CCC[C@H]1C(=O)N1CCC[C@H]1C(=O)N1CCC[C@H]1C(=O)N[C@@H](CO)C(N)=O)C(C)C` [Compound 7#] (H-Y[Aib]EGTFTSDYSIYK([AEEA-AEEA-γGlu-C20 diacid])DKIAAQEFVNWLLAGGPSSGAPPPS-NH2), the “Changes in body weight” value with diet-induced obese mice (Day 1) is reported as 0%; in the data set with diet-induced obese mice (Day 4) it was −11.0%; with diet-induced obese mice (Day 7), −17.6%; in the data set on diet-induced obese mice (Day 10), −22.6%; with diet-induced obese mice (Day 13), −22.3%; in the data set on diet-induced obese mice (Day 16) it was −22.7%. The “Changes in body weight” value in the data set with diet-induced obese mice (Day 19) is −25.9%; with diet-induced obese mice (Day 22), −23.9%; in the data set on diet-induced obese mice (Day 25) it was −23.9%; in the data set with diet-induced obese mice (Day 28) it was −25.5%. For the same compound, the “relative content of compounds retained in plasma” value in data set [1] stood at 100.00%. In the data set with normal mice, the “reduction of area under the blood glucose curve compared to placebo” value is given as “more than 60%”. The Blood glucose is 4.4 ± 0.8 mmol/L in the data set with normal mice (0 min); 6.7 ± 0.8 mmol/L in the data set with normal mice (15 min); 6.2 ± 1.3 mmol/L in the data set on normal mice (30 min); 5.7 ± 1.2 mmol/L in the data set with normal mice (60 min); 3.8 ± 1.1 mmol/L in the data set on normal mice (120 min).
